In this experiment the target is T1, IRP2 (Homo sapiens, UniProt P48200).
T1 construct: gene IREB2; isolated IRP2 immobilised on CM5 chip
T1 sequence (P48200 1-963): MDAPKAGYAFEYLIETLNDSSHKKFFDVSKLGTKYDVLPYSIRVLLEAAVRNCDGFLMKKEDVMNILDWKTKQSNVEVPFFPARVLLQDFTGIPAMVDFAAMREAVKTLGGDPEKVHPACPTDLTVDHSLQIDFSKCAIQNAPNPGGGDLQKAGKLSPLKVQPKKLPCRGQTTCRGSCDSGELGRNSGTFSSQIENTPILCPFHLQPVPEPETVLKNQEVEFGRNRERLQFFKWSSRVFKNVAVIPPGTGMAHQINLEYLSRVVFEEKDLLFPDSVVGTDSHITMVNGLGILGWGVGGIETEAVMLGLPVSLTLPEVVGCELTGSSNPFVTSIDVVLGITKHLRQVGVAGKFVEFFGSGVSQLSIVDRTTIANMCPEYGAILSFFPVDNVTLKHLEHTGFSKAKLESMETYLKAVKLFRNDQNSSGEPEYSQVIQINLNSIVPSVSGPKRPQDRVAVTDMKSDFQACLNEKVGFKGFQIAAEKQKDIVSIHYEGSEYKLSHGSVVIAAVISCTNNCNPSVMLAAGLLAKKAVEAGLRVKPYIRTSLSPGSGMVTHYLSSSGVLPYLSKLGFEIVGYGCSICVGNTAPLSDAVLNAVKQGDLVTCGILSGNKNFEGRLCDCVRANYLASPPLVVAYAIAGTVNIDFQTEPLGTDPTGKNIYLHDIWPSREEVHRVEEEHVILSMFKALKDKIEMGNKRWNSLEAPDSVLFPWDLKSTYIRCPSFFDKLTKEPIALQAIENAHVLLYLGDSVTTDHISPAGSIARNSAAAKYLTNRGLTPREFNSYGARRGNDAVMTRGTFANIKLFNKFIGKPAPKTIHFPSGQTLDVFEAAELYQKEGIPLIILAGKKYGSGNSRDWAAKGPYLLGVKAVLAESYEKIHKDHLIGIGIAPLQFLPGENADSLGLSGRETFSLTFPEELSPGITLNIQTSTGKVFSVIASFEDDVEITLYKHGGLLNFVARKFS
As to the kind of experiment: SPR (Biacore T200, CM5 chip, multi-cycle kinetics, […] fit). It counts as binding. A general note: In SPR one partner is held on a chip, and binding of the other changes the refractive index at the surface.

What is called Kd is the equilibrium constant for the complex coming apart. On to `COc1ccc(S(=O)(=O)Nc2cccc(C)c2)cc1-c1cnc2[nH]ncc2c1` [KS-20073], for which the affinity, expressed as Kd, was 45.9 µM. With `COc1ccc(S(=O)(=O)Nc2cccc(F)c2)cc1-c1cnc2[nH]nc(NC(C)=O)c2c1` [KS-20226] the figure was 4.1 µM.
